Laboratory results as given in patent US20230111310A1, “CARBOXYLIC ACID DERIVATIVE-SUBSTITUTED IMINO ARYL COMPOUND, PREPARATION METHOD THEREFOR, HERBICIDAL COMPOSITION AND USE THEREOF” (Qingdao Kingagroot Chemical Compound Co., Ltd., priority 2020, published 2023).

Key:
Test in all cases: Weeding effect in post-emergence stage
Assay type in all cases: in vivo
Abutilon theophrasti = settings: for Weeding effect in post-emergence stage, Abutilon theophrasti: level of fresh weight growth control rate; for Weeding effect in post-emergence stage, Abutilon theophrasti (level): fresh weight control rate level
In short: (§1)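 Pot-grown weeds were sprayed at the 2-3 leaf stage, 2 weeks after sowing, with compound in acetone plus Tween 80 and 1.5 liter/ha methyl oleate emulsifiable concentrate, diluted in water. Doses were 500, 250, 125, 60, 30, 15, 7.5 g/ha. Growth control was scored after 3 weeks in greenhouse; mean of three replicates.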

Alopecurus japonicus = settings: for Weeding effect in post-emergence stage, Alopecurus japonicus: level of fresh weight growth control rate; for Weeding effect in post-emergence stage, Alopecurus japonicus (level): fresh weight control rate level
In short: as §1

Digitaria sanguinalis = settings: for Weeding effect in post-emergence stage, Digitaria sanguinalis: level of fresh weight growth control rate; for Weeding effect in post-emergence stage, Digitaria sanguinalis (level): fresh weight control rate level
In short: as §1

Eleusine indica = settings: for Weeding effect in post-emergence stage, Eleusine indica: level of fresh weight growth control rate; for Weeding effect in post-emergence stage, Eleusine indica (level): fresh weight control rate level
In short: as §1

Setaria viridis = settings: for Weeding effect in post-emergence stage, Setaria viridis: level of fresh weight growth control rate; for Weeding effect in post-emergence stage, Setaria viridis (level): fresh weight control rate level
In short: as §1

Echinochloa crusgalli = settings: for Weeding effect in post-emergence stage, Echinochloa crusgalli: level of fresh weight growth control rate; for Weeding effect in post-emergence stage, Echinochloa crusgalli (level): fresh weight control rate level
In short: as §1

Row | Structure (SMILES) | Weeding effect in post-emergence stage, Abutilon theophrasti (Abutilon theophrasti; Dose 15 g/ha) | Weeding effect in post-emergence stage, Alopecurus japonicus (Alopecurus japonicus; Dose 15 g/ha) | Weeding effect in post-emergence stage, Digitaria sanguinalis (Digitaria sanguinalis; Dose 15 g/ha) | Weeding effect in post-emergence stage, Eleusine indica (Eleusine indica; Dose 15 g/ha) | Weeding effect in post-emergence stage, Setaria viridis (Setaria viridis; Dose 15 g/ha) | Weeding effect in post-emergence stage, Echinochloa crusgalli (Echinochloa crusgalli; Dose 15 g/ha) | further results
1 | CCOC(=O)[C@@H](C)O/N=C/c1cc(-n2c(=O)n(C)c(=S)n(C)c2=O)c(F)cc1Br [84(R)] | 5 (Level 5: growth control rate is above 85%) | 4 (Level 4: growth control rate is greater than or equal to 60% and less than 85%) | 4 (Level 4: growth control rate is greater than or equal to 60% and less than 85%) | 5 (Level 5: growth control rate is above 85%) | 5 (Level 5: growth control rate is above 85%) | 5 (Level 5: growth control rate is above 85%) | 
2 | CCCCOCCOC(=O)[C@@H](C)O/N=C/c1cc(-n2c(=O)cc(C(F)(F)F)n(C)c2=O)c(F)cc1Cl [232(R)] | 5 (Level 5: growth control rate is above 85%) | 5 (Level 5: growth control rate is above 85%) | 5 (Level 5: growth control rate is above 85%) | 5 (Level 5: growth control rate is above 85%) | 5 (Level 5: growth control rate is above 85%) | 5 (Level 5: growth control rate is above 85%) | 
3 | CC(O/N=C/c1cc(-n2c(=O)cc(C(F)(F)F)n(C)c2=O)c(F)cc1Cl)C(=O)OCc1cccnc1 (stereo not drawn) [Compound 302] | 5 (Level 5: growth control rate is above 85%) | 5 (Level 5: growth control rate is above 85%) | 5 (Level 5: growth control rate is above 85%) | 5 (Level 5: growth control rate is above 85%) | 5 (Level 5: growth control rate is above 85%) | 5 (Level 5: growth control rate is above 85%) | 
4 | CC(C)SC(=O)[C@@H](C)O/N=C/c1cc(-n2c(=O)cc(C(F)(F)F)n(C)c2=O)c(F)cc1Cl [400(R)] |  |  |  |  |  |  | Weeding effect in post-emergence stage, Abutilon theophrasti (level) (Abutilon theophrasti; Dose 15 g/ha): 5 (Level 5: growth control rate is above 85%); Weeding effect in post-emergence stage, Alopecurus japonicus (level) (Alopecurus japonicus; Dose 15 g/ha): 5 (Level 5: growth control rate is above 85%); Weeding effect in post-emergence stage, Digitaria sanguinalis (level) (Digitaria sanguinalis; Dose 15 g/ha): 5 (Level 5: growth control rate is above 85%); Weeding effect in post-emergence stage, Eleusine indica (level) (Eleusine indica; Dose 15 g/ha): 5 (Level 5: growth control rate is above 85%); Weeding effect in post-emergence stage, Setaria viridis (level) (Setaria viridis; Dose 15 g/ha): 5 (Level 5: growth control rate is above 85%); Weeding effect in post-emergence stage, Echinochloa crusgalli (level) (Echinochloa crusgalli; Dose 15 g/ha): 5 (Level 5: growth control rate is above 85%)
5 | CCC(CC)=NOC(=O)C(C)O/N=C/c1cc(-n2c(=O)cc(C(F)(F)F)n(C)c2=O)c(F)cc1Cl (stereo not drawn) [Compound 251] | 5 (Level 5: growth control rate is above 85%) | 5 (Level 5: growth control rate is above 85%) | 5 (Level 5: growth control rate is above 85%) | 5 (Level 5: growth control rate is above 85%) | 5 (Level 5: growth control rate is above 85%) | 5 (Level 5: growth control rate is above 85%) | 
6 | CC(O/N=C/c1cc(-n2c(=O)n(C)c(=S)n(C)c2=O)c(F)cc1Cl)C(=O)O (stereo not drawn) [Compound 438] |  |  |  |  |  |  | Weeding effect in post-emergence stage, Abutilon theophrasti (level) (Abutilon theophrasti; Dose 30 g/ha): 5 (Level 5: growth control rate is above 85%); Weeding effect in post-emergence stage, Alopecurus japonicus (level) (Alopecurus japonicus; Dose 30 g/ha): 5 (Level 5: growth control rate is above 85%); Weeding effect in post-emergence stage, Digitaria sanguinalis (level) (Digitaria sanguinalis; Dose 30 g/ha): 5 (Level 5: growth control rate is above 85%); Weeding effect in post-emergence stage, Eleusine indica (level) (Eleusine indica; Dose 30 g/ha): 5 (Level 5: growth control rate is above 85%); Weeding effect in post-emergence stage, Setaria viridis (level) (Setaria viridis; Dose 30 g/ha): 5 (Level 5: growth control rate is above 85%); Weeding effect in post-emergence stage, Echinochloa crusgalli (level) (Echinochloa crusgalli; Dose 30 g/ha): 5 (Level 5: growth control rate is above 85%)
7 | C[C@@H](O/N=C/c1cc(-n2c(=O)cc(C(F)(F)F)n(C)c2=O)c(F)cc1Cl)C(=O)OCC(F)F [217(R)] | 5 (Level 5: growth control rate is above 85%) | 5 (Level 5: growth control rate is above 85%) | 5 (Level 5: growth control rate is above 85%) | 5 (Level 5: growth control rate is above 85%) | 5 (Level 5: growth control rate is above 85%) | 5 (Level 5: growth control rate is above 85%) | 
8 | CC(O/N=C/c1cc(-n2c(=O)cc(C(F)(F)F)n(C)c2=O)c(F)cc1Cl)C(=O)OCCF (racemic) [Compound 216] | 5 (Level 5: growth control rate is above 85%) | 4 (Level 4: growth control rate is greater than or equal to 60% and less than 85%) | 5 (Level 5: growth control rate is above 85%) | 5 (Level 5: growth control rate is above 85%) | 5 (Level 5: growth control rate is above 85%) | 5 (Level 5: growth control rate is above 85%) | 
9 | C[C@@H](O/N=C/c1cc(-n2c(=O)cc(C(F)(F)F)n(C)c2=O)c(F)cc1Cl)C(=O)OCCO [228(R)] | 5 (Level 5: growth control rate is above 85%) | 5 (Level 5: growth control rate is above 85%) | 5 (Level 5: growth control rate is above 85%) | 5 (Level 5: growth control rate is above 85%) | 5 (Level 5: growth control rate is above 85%) | 5 (Level 5: growth control rate is above 85%) | 
10 | COC(=O)C(C)SN=Cc1cc(-n2c(=O)n(C)c(=S)n(C)c2=O)c(F)cc1Cl (stereo not drawn) [Compound 692] |  |  |  |  |  |  | Weeding effect in post-emergence stage, Abutilon theophrasti (level) (Abutilon theophrasti; Dose 15 g/ha): 5 (Level 5: growth control rate is above 85%); Weeding effect in post-emergence stage, Alopecurus japonicus (level) (Alopecurus japonicus; Dose 15 g/ha): 5 (Level 5: growth control rate is above 85%); Weeding effect in post-emergence stage, Digitaria sanguinalis (level) (Digitaria sanguinalis; Dose 15 g/ha): 5 (Level 5: growth control rate is above 85%); Weeding effect in post-emergence stage, Eleusine indica (level) (Eleusine indica; Dose 15 g/ha): 5 (Level 5: growth control rate is above 85%); Weeding effect in post-emergence stage, Setaria viridis (level) (Setaria viridis; Dose 15 g/ha): 5 (Level 5: growth control rate is above 85%); Weeding effect in post-emergence stage, Echinochloa crusgalli (level) (Echinochloa crusgalli; Dose 15 g/ha): 5 (Level 5: growth control rate is above 85%)
11 | CCOC(=O)C(OC)O/N=C/c1cc(-n2c(=O)cc(C(F)(F)F)n(C)c2=O)c(F)cc1Cl (stereo not drawn) [Compound 322] |  |  |  |  |  |  | Weeding effect in post-emergence stage, Abutilon theophrasti (Abutilon theophrasti; Dose 120 g/ha): 5 (Level 5: growth control rate is above 85%); Weeding effect in post-emergence stage, Alopecurus japonicus (Alopecurus japonicus; Dose 120 g/ha): 5 (Level 5: growth control rate is above 85%); Weeding effect in post-emergence stage, Digitaria sanguinalis (Digitaria sanguinalis; Dose 120 g/ha): 5 (Level 5: growth control rate is above 85%); Weeding effect in post-emergence stage, Eleusine indica (Eleusine indica; Dose 120 g/ha): 5 (Level 5: growth control rate is above 85%); Weeding effect in post-emergence stage, Setaria viridis (Setaria viridis; Dose 120 g/ha): 5 (Level 5: growth control rate is above 85%); Weeding effect in post-emergence stage, Echinochloa crusgalli (Echinochloa crusgalli; Dose 120 g/ha): 5 (Level 5: growth control rate is above 85%)
12 | CCN(CC)C(=O)C(C)ON=Cc1cc(-n2c(=O)cc(C(F)(F)F)n(C)c2=O)c(F)cc1Cl (stereo not drawn) [Compound 502] |  |  |  |  |  |  | Weeding effect in post-emergence stage, Abutilon theophrasti (level) (Abutilon theophrasti; Dose 15 g/ha): 5 (Level 5: growth control rate is above 85%); Weeding effect in post-emergence stage, Alopecurus japonicus (level) (Alopecurus japonicus; Dose 15 g/ha): 5 (Level 5: growth control rate is above 85%); Weeding effect in post-emergence stage, Digitaria sanguinalis (level) (Digitaria sanguinalis; Dose 15 g/ha): 5 (Level 5: growth control rate is above 85%); Weeding effect in post-emergence stage, Eleusine indica (level) (Eleusine indica; Dose 15 g/ha): 5 (Level 5: growth control rate is above 85%); Weeding effect in post-emergence stage, Setaria viridis (level) (Setaria viridis; Dose 15 g/ha): 5 (Level 5: growth control rate is above 85%); Weeding effect in post-emergence stage, Echinochloa crusgalli (level) (Echinochloa crusgalli; Dose 15 g/ha): 5 (Level 5: growth control rate is above 85%)
13 | COC(=O)C(OC)O/N=C/c1cc(-n2c(=O)cc(C(F)(F)F)n(C)c2=O)c(F)cc1Cl (stereo not drawn) [Compound 321] |  |  |  |  |  |  | Weeding effect in post-emergence stage, Abutilon theophrasti (Abutilon theophrasti; Dose 120 g/ha): 5 (Level 5: growth control rate is above 85%); Weeding effect in post-emergence stage, Alopecurus japonicus (Alopecurus japonicus; Dose 120 g/ha): 5 (Level 5: growth control rate is above 85%); Weeding effect in post-emergence stage, Digitaria sanguinalis (Digitaria sanguinalis; Dose 120 g/ha): 5 (Level 5: growth control rate is above 85%); Weeding effect in post-emergence stage, Eleusine indica (Eleusine indica; Dose 120 g/ha): 5 (Level 5: growth control rate is above 85%); Weeding effect in post-emergence stage, Setaria viridis (Setaria viridis; Dose 120 g/ha): 5 (Level 5: growth control rate is above 85%); Weeding effect in post-emergence stage, Echinochloa crusgalli (Echinochloa crusgalli; Dose 120 g/ha): 5 (Level 5: growth control rate is above 85%)
